Patent publication US20100160454A1, “ANTIMICROBIAL AGENTS, COMPOSITIONS AND PRODUCTS CONTAINING THE SAME, AND METHODS OF USING THE COMPOSITIONS AND PRODUCTS” (Eastman Chemical Company, priority 2008, published 2010)

What was measured:
Test in all cases: Microbiological challenge testing in BPW broth, graded subculture counts
Format in all cases: cell-based
[1] = test system: Aspergillus niger Wild type; conditions: A. niger
Method: (§1) The microorganisms in the table below were used in challenge tests. They were either ATCC (American Type Culture Collection) or “wild type” as indicated. Wild type organisms were problematic organisms previously isolated from chemical products.
(§2) All of the microorganisms were grown in Tryptose Soy Broth (TSB), DIFCO™ available from Becton, Dickinson and Company, containing 1% dextrose. Candida albicans and Aspergillus niger, were incubated at 22° C.+/−2° C. for at least 96 hours. All bacteria were incubated at 35° C.+/−2° C. in a humidified incubator for at least 96 hours.
(§3) Candida albicans and Aspergillus niger were also grown on Sabouraud Dextrose Agar (SABD) at 22° C. for 7 to 14 days or until full sporulation was achieved.
(§4) The following procedure was followed to determine the amount of each challenge material (inoculum broth) needed to produce a 10^8 CFU/mL challenge, which is equivalent to a final test-sample microbial concentration of 10^5 to 10^6 CFU/mL (CFU=colony forming units).
(§5) Using a sterile pipette, 1 mL of the growth from each TSB culture was transferred into tubes of 9 mL buffered water (pH 7.2 phosphate buffer) and mixed thoroughly. This was repeated to make serial 1:10 dilutions. Then, 0.1 mL of each sample and dilution was inoculated onto agar plates to produce the equivalent of a further 1:10 dilution. (C. albicans and A. niger were inoculated onto SABD and bacteria were inoculated onto Plate Count Agar (PCA), DIFCO™ available from Becton, Dickinson and Company.) (The normal volume plated for most samples was 0.1 mL. Some samples that could be very low in micro-organisms (high dilutions) were plated using 0.5 mL of inoculum, in order to produce reproducible counts.) The samples were distributed on the plates using the spread-plate technique. The spread-plate technique is carried out by spreading the sample over the entire plate surface using a sterile spreading rod while rotating the plate with a rotary auto-plater. After the inoculum was absorbed completely by the agar, each plate was inverted and incubated (fungi at 22° C.+/−2° C. and bacteria at 35° C.+/−2° C.).
(§6) After incubation for at least 48 hours, colonies that had developed on the agar plates were counted (CFU) and recorded with the corresponding dilution. If counting had to be delayed temporarily, plates were refrigerated, preferably no more than 24 hours, until they could be counted. The number of CFU/mL was determined by multiplying the plate count by the dilution factor of the plate counted.
(§7) Turbidity in Nepholemetric Turbidity Units (NTU) was measured for each serial dilution using the HF-Micro 100 Model Turbidimeter. For each microorganism, the plate counts were compared to the turbidity readings.
Aspergillus niger cultures were harvested and spores dislodged from the SABD on which they were grown by rubbing the growth gently with a sterile inoculating loop. The spores were then mixed into the broth culture that had been incubated with a sterile magnetic stir bar to reduce pellicle formation. The spore-culture mixture was filtered repeatedly through sterile, nonabsorbent cotton and harvested repeatedly, adjusting vegetative cells and spores to a level of 1.0×10^8. A hemocytometer was used to verify the final challenge concentration.
(§8) Control substrates (“broth alone”) were prepared for each microorganism separately in triplicate by adding 13.5 mL of Buffered Peptone Water broth (BPW) containing 1% dextrose to each 20-mL glass tube, then adding 1.5 mL challenge material to produce a final concentration at time zero of 10^5 to 10^6 CFU/mL and a total volume of 15 mL.

[2] = test system: Candida albicans Wild type; conditions: C. albicans
Method: as §1, §2, §3, §4, §5, §6, §7
On the day of challenge, the Candida albicans inoculum broth was poured through nonabsorbent sterile gauze and centrifuged. The […] was then diluted with buffered water (pH 7.2 phosphate buffer) until the desired turbidity was reached. Using a hemocytometer, a determination was made whether the challenge contained the desired concentration. Dilutions were made through 1.0×10^8 and three SABD spread plates were inoculated with 0.1 mL of each dilution. The plates were incubated for at least 48 hours and challenge counts were confirmed.
as §8

[3] = test system: Pseudomonas aeruginosa Wild type; conditions: P. aeruginosa
Procedure, shortened: (§9)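 TSB + 1% dextrose cultures, 35 ± 2 °C, ≥96 h. Inoculum calibrated by NTU vs plate counts; challenge at 10^5–10^6 CFU/mL final in BPW/1% dextrose with test material. Triplicates (butoxyethanol in duplicate). Spread plates on PCA, ≥48 h, CFU/mL = count × dilution.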

[4] = test system: Staphylococcus epidermidis ATCC 12228
Procedure, shortened: as §9

Question: Which Grade ([1]; 0.5% (wt/vol), 3 day) does the source give for OCC1CCCCC1CO (stereo not drawn) [1,2-CHDM, 1,2-cyclohexanedimethanol] here?
Answer: 4.7

Question: And the Grade ([1]; 0.5% (wt/vol), 13 day)?
Answer: 4

Question: What about the Grade ([1]; 0.5% (wt/vol), 30 day) of the same compound?
Answer: 4

Question: What about the Grade ([1]; 1.25% (wt/vol), 3 day) of the same compound?
Answer: 3.3

Question: And the Grade ([1]; 1.25% (wt/vol), 13 day)?
Answer: 3.3

Question: And the Grade ([1]; 1.25% (wt/vol), 30 day)?
Answer: 4

Question: What about the Grade ([1]; 2.5% (wt/vol), 3 day) of the same compound?
Answer: 2 (Countable (10 to 100 colonies))

Question: And the Grade ([1]; 2.5% (wt/vol), 13 day)?
Answer: 0

Question: And the Grade ([1]; 2.5% (wt/vol), 30 day)?
Answer: 0

Question: What about the Grade ([1]; 5.0% (wt/vol), 3 day) of the same compound?
Answer: 0

Question: And the Grade ([1]; 5.0% (wt/vol), 13 day)?
Answer: 0

Question: And the Grade ([1]; 5.0% (wt/vol), 30 day)?
Answer: 0

Question: What about the Grade ([2]; 0.5% (wt/vol), 3 day) of the same compound?
Answer: 4 (1000 to 10,000 colonies countable (thus 10,000 CFU/mL to 100,000 CFU/mL))

Question: What about the Grade ([2]; 0.5% (wt/vol), 14 day) of the same compound?
Answer: 4 (1000 to 10,000 colonies countable (thus 10,000 CFU/mL to 100,000 CFU/mL))

Question: And the Grade ([2]; 0.5% (wt/vol), 30 day)?
Answer: 4 (1000 to 10,000 colonies countable (thus 10,000 CFU/mL to 100,000 CFU/mL))

Question: What about the Grade ([2]; 1.25% (wt/vol), 3 day) of the same compound?
Answer: 4 (1000 to 10,000 colonies countable (thus 10,000 CFU/mL to 100,000 CFU/mL))

Question: And the Grade ([2]; 1.25% (wt/vol), 14 day)?
Answer: 4 (1000 to 10,000 colonies countable (thus 10,000 CFU/mL to 100,000 CFU/mL))

Question: What about the Grade ([2]; 1.25% (wt/vol), 30 day) of the same compound?
Answer: 4 (1000 to 10,000 colonies countable (thus 10,000 CFU/mL to 100,000 CFU/mL))

Question: And the Grade ([2]; 2.5% (wt/vol), 3 day)?
Answer: 0

Question: And the Grade ([2]; 2.5% (wt/vol), 14 day)?
Answer: 0

Question: What about the Grade ([2]; 2.5% (wt/vol), 30 day) of the same compound?
Answer: 0

Question: And the Grade ([2]; 5.0% (wt/vol), 3 day)?
Answer: 0

Question: What about the Grade ([2]; 5.0% (wt/vol), 14 day) of the same compound?
Answer: 0

Question: And the Grade ([2]; 5.0% (wt/vol), 30 day)?
Answer: 0

Question: And the Grade ([3]; 0.5% (wt/vol), 3 day)?
Answer: 4 (1000 to 10,000 colonies countable (thus 10,000 CFU/mL to 100,000 CFU/mL))

Question: And the Grade ([3]; 0.5% (wt/vol), 13 day)?
Answer: 4 (1000 to 10,000 colonies countable (thus 10,000 CFU/mL to 100,000 CFU/mL))

Question: And the Grade ([3]; 0.5% (wt/vol), 30 day)?
Answer: 4 (1000 to 10,000 colonies countable (thus 10,000 CFU/mL to 100,000 CFU/mL))

Question: And the Grade ([3]; 1.25% (wt/vol), 3 day)?
Answer: 2.7

Question: What about the Grade ([3]; 1.25% (wt/vol), 13 day) of the same compound?
Answer: 1 (0 to 51 colonies counted (thus 10 to 510 CFU/mL based on 0.1-mL sample))

Question: And the Grade ([3]; 1.25% (wt/vol), 30 day)?
Answer: 3 (100 to 1000 colonies (thus 1000 to 10,000 CFU/mL))

Question: And the Grade ([3]; 2.5% (wt/vol), 3 day)?
Answer: 1 (0 to 51 colonies counted (thus 10 to 510 CFU/mL based on 0.1-mL sample))

Question: And the Grade ([3]; 2.5% (wt/vol), 13 day)?
Answer: 0

Question: What about the Grade ([3]; 2.5% (wt/vol), 30 day) of the same compound?
Answer: 0

Question: What about the Grade ([3]; 5.0% (wt/vol), 3 day) of the same compound?
Answer: 0

Question: What about the Grade ([3]; 5.0% (wt/vol), 13 day) of the same compound?
Answer: 0

Question: And the Grade ([3]; 5.0% (wt/vol), 30 day)?
Answer: 0

Question: What about the “S. epidermidis growth grade, 3 day” value ([4]; 0.5% weight/volume) of the same compound?
Answer: 4 (1000 to 10,000 colonies countable (thus 10,000 CFU/mL to 100,000 CFU/mL))

Question: And the “S. epidermidis growth grade, 13 day” value ([4]; 0.5% weight/volume)?
Answer: 3 (100 to 1000 colonies (thus 1000 to 10,000 CFU/mL))

Question: What about the “S. epidermidis growth grade, 30 day” value ([4]; 0.5% weight/volume) of the same compound?
Answer: 4 (1000 to 10,000 colonies countable (thus 10,000 CFU/mL to 100,000 CFU/mL))

Question: And the “S. epidermidis growth grade, 3 day” value ([4]; 1.25% weight/volume)?
Answer: 2.3

Question: What about the “S. epidermidis growth grade, 13 day” value ([4]; 1.25% weight/volume) of the same compound?
Answer: 1 (0 to 51 colonies counted (thus 10 to 510 CFU/mL based on 0.1-mL sample))

Question: And the “S. epidermidis growth grade, 30 day” value ([4]; 1.25% weight/volume)?
Answer: 3 (100 to 1000 colonies (thus 1000 to 10,000 CFU/mL))

Question: And the “S. epidermidis growth grade, 3 day” value ([4]; 2.5% weight/volume)?
Answer: 0

Question: What about the “S. epidermidis growth grade, 13 day” value ([4]; 2.5% weight/volume) of the same compound?
Answer: 0

Question: What about the “S. epidermidis growth grade, 30 day” value ([4]; 2.5% weight/volume) of the same compound?
Answer: 0

Question: What about the “S. epidermidis growth grade, 3 day” value ([4]; 5.0% weight/volume) of the same compound?
Answer: 0

Question: And the “S. epidermidis growth grade, 13 day” value ([4]; 5.0% weight/volume)?
Answer: 0

Question: What about the “S. epidermidis growth grade, 30 day” value ([4]; 5.0% weight/volume) of the same compound?
Answer: 0
